Reference: ChEMBL document CHEMBL6092185, “Discovery of glycosidated glycyrrhetinic acid derivatives: Natural product-based soluble epoxide hydrolase inhibitors” (Eur J Med Chem, 2024)

Legend:
[1] = target: T1, Bifunctional epoxide hydrolase 2 (Mus musculus, UniProt P34914); assay: Inhibition of C57BL/6J mouse cortex sEH using 14,15-EET as substrate preincubated for 15 mins followed by substrate addition measured after 2 hrs by UPLC-MS/MS analysis
T1 sequence (P34914 whole entry): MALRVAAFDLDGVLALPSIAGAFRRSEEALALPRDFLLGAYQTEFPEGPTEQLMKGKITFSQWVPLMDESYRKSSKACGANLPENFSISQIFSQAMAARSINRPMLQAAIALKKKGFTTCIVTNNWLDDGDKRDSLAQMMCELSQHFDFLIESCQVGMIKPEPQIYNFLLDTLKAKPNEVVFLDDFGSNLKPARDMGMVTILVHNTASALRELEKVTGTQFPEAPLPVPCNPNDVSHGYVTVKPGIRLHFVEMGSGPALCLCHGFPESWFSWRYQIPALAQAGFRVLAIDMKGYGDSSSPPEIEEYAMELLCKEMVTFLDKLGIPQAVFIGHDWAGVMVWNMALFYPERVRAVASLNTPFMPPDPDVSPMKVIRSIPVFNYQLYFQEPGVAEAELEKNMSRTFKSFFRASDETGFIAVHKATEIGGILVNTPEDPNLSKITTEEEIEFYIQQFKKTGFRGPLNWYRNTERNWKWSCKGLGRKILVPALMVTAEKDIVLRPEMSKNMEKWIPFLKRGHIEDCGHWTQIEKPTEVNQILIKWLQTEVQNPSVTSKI

[2] = species on record: Mus musculus; assay: animal or person; details: BALB/c, 4 h, read-out: INH

| Compound | IC50 [1] [nM] | inhibition in vivo at 20 mg/kg [2] [%] |
| --- | --- | --- |
| CC(C)CNC(=O)NC[C@@]1(C)CC[C@]2(C)CC[C@]3(C)C(=CC[C@@H]4[C@@]5(C)CC[C@H](O)C(C)(C)[C@@H]5CC[C@]43C)[C@@H]2C1 | 6.6 |  |
| CCC(=O)N1CCC(CNC(=O)NC[C@@]2(C)CC[C@]3(C)CC[C@]4(C)C(=CC(=O)[C@@H]5[C@@]6(C)CC[C@H](O[C@H]7O[C@H](CO)[C@@H](O)[C@H](O)[C@@H]7O)C(C)(C)[C@@H]6CC[C@]54C)[C@H]3C2)CC1 | 151 |  |
| CC1(C)[C@@H](O[C@@H]2O[C@H](CO)[C@@H](O)[C@H](O)[C@H]2O)CC[C@]2(C)[C@H]3C(=O)C=C4[C@@H]5C[C@@](C)(CNC(=O)NCC6CCOCC6)CC[C@]5(C)CC[C@@]4(C)[C@]3(C)CC[C@@H]12 | 446 |  |
| CC1(C)[C@@H](O[C@H]2OC[C@@H](O)[C@H](O)[C@H]2O)CC[C@]2(C)[C@H]3C(=O)C=C4[C@H]5C[C@@](C)(CNC(=O)NCC6CCOCC6)CC[C@]5(C)CC[C@@]4(C)[C@]3(C)CC[C@@H]12 | 450 |  |
| CC1(C)[C@@H](O)CC[C@]2(C)[C@H]3C(=O)C=C4[C@@H]5C[C@@](C)(CNC(=O)NCc6ccc(OC(F)(F)F)cc6)CC[C@]5(C)CC[C@@]4(C)[C@]3(C)CC[C@@H]12 | 8.6 |  |
| CC1(C)C(=O)CC[C@]2(C)[C@H]3C(=O)C=C4[C@H]5C[C@@](C)(CNC(=O)NCC6CCOCC6)CC[C@]5(C)CC[C@@]4(C)[C@]3(C)CC[C@@H]12 | 13.4 |  |
| CC1(C)[C@@H](O)CC[C@]2(C)[C@H]3C(=O)C=C4[C@@H]5C[C@@](C)(CNC(=O)NCC6CCOCC6)CC[C@]5(C)CC[C@@]4(C)[C@]3(C)CC[C@@H]12 | 7.7 | 27.2 |
| CC1(C)[C@@H](O[C@@H]2O[C@H](CO)[C@H](O)[C@H](O)[C@H]2O)CC[C@]2(C)[C@H]3C(=O)C=C4[C@H]5C[C@@](C)(CNC(=O)NCC6CCOCC6)CC[C@]5(C)CC[C@@]4(C)[C@]3(C)CC[C@@H]12 | 542 |  |
| CC1(C)[C@@H](O)CC[C@]2(C)[C@H]3CC=C4[C@@H]5C[C@@](C)(CNC(=O)NCC6CCOCC6)CC[C@]5(C)CC[C@@]4(C)[C@]3(C)CC[C@@H]12 | 10.3 |  |
| CC1(C)[C@@H](O[C@@H]2O[C@H](CO)[C@@H](O)[C@H](O)[C@@H]2O)CC[C@]2(C)[C@H]3C(=O)C=C4[C@H]5C[C@@](C)(CNC(=O)NCC6CCOCC6)CC[C@]5(C)CC[C@@]4(C)[C@]3(C)CC[C@@H]12 | 160 |  |
| CC(C)CNC(=O)NC[C@@]1(C)CC[C@]2(C)CC[C@]3(C)C(=CC(=O)[C@@H]4[C@@]5(C)CC[C@H](O)C(C)(C)[C@@H]5CC[C@]43C)[C@H]2C1 | 13.4 |  |
| CC1(C)[C@@H](O[C@@H]2O[C@H](CO)[C@@H](O)[C@H](O)[C@H]2O)CC[C@]2(C)[C@H]3C(=O)C=C4[C@H]5C[C@@](C)(CNC(=O)NCc6ccc(OC(F)(F)F)cc6)CC[C@]5(C)CC[C@@]4(C)[C@]3(C)CC[C@@H]12 | 3720 |  |
| CCC(=O)N1CCC(CNC(=O)NC[C@@]2(C)CC[C@]3(C)CC[C@]4(C)C(=CC(=O)[C@@H]5[C@@]6(C)CC[C@H](O[C@@H]7O[C@H](CO)[C@@H](O)[C@H](O)[C@@H]7O)C(C)(C)[C@@H]6CC[C@]54C)[C@H]3C2)CC1 | 152 |  |
| CC1(C)[C@@H](O)CC[C@]2(C)[C@H]3C(=O)C=C4[C@H]5C[C@@](C)(CNC(=O)NCc6ccc(S(C)(=O)=O)cc6)CC[C@]5(C)CC[C@@]4(C)[C@]3(C)CC[C@@H]12 | 9.7 |  |

Further molecules by falling IC50 [1], results first:

| IC50 [1] [nM] | Compound | inhibition in vivo at 20 mg/kg [2] [%] |
| --- | --- | --- |
| 5630 | CC1(C)[C@@H](O[C@H]2O[C@H](CO)[C@@H](O)[C@H](O)[C@H]2O)CC[C@]2(C)[C@H]3C(=O)C=C4[C@H]5C[C@@](C)(CNC(=O)NCc6ccc(OC(F)(F)F)cc6)CC[C@]5(C)CC[C@@]4(C)[C@]3(C)CC[C@@H]12 |  |
| 2270 | CC1(C)[C@@H](O[C@H]2O[C@H](CO)[C@@H](O)[C@H](O)[C@H]2O)CC[C@]2(C)[C@H]3C(=O)C=C4[C@@H]5C[C@@](C)(CNC(=O)NCC6CCC(OC(F)(F)F)CC6)CC[C@]5(C)CC[C@@]4(C)[C@]3(C)CC[C@@H]12 (stereo partly specified) |  |
| 2120 | CC1(C)[C@@H](O[C@@H]2O[C@H](CO)[C@@H](O)[C@H](O)[C@H]2O)CC[C@]2(C)[C@H]3C(=O)C=C4[C@@H]5C[C@@](C)(CNC(=O)NCC6CCC(OC(F)(F)F)CC6)CC[C@]5(C)CC[C@@]4(C)[C@]3(C)CC[C@@H]12 (stereo partly specified) |  |
| 435 | CC1(C)[C@@H](O[C@@H]2OC[C@@H](O)[C@H](O)[C@H]2O)CC[C@]2(C)[C@H]3C(=O)C=C4[C@H]5C[C@@](C)(CNC(=O)NCC6CCOCC6)CC[C@]5(C)CC[C@@]4(C)[C@]3(C)CC[C@@H]12 |  |
| 387 | CC1(C)[C@@H](O[C@H]2O[C@H](CO)[C@@H](O)[C@H](O)[C@H]2O)CC[C@]2(C)[C@H]3C(=O)C=C4[C@@H]5C[C@@](C)(CNC(=O)NCC6CCOCC6)CC[C@]5(C)CC[C@@]4(C)[C@]3(C)CC[C@@H]12 |  |
| 310 | CC1(C)[C@@H](O[C@H]2O[C@H](CO)[C@H](O)[C@H](O)[C@H]2O)CC[C@]2(C)[C@H]3C(=O)C=C4[C@H]5C[C@@](C)(CNC(=O)NCC6CCOCC6)CC[C@]5(C)CC[C@@]4(C)[C@]3(C)CC[C@@H]12 |  |
| 174 | CCC(=O)N1CCC(CNC(=O)NC[C@@]2(C)CC[C@]3(C)CC[C@]4(C)C(=CC(=O)[C@@H]5[C@@]6(C)CC[C@H](O[C@@H]7O[C@H](CO)[C@@H](O)[C@H](O)[C@@H]7O)C(C)(C)[C@@H]6CC[C@]54C)[C@@H]3C2)CC1 |  |
| 114 | CC1(C)[C@@H](O[C@@H]2OC[C@@H](O)[C@@H](O)[C@@H]2O)CC[C@]2(C)[C@H]3C(=O)C=C4[C@H]5C[C@@](C)(CNC(=O)NCC6CCOCC6)CC[C@]5(C)CC[C@@]4(C)[C@]3(C)CC[C@@H]12 |  |
| 20.5 | CC(C)CNC(=O)NC[C@@]1(C)CC[C@]2(C)CC[C@]3(C)C(=CC(=O)[C@@H]4[C@@]5(C)CC[C@H](O)C(C)(C)[C@@H]5CC[C@]43C)[C@@H]2C1 |  |
| 19.8 | CC1(C)[C@@H](O)CC[C@]2(C)[C@H]3C(=O)C=C4[C@@H]5C[C@@](C)(CNC(=O)NCc6ccc(S(N)(=O)=O)cc6)CC[C@]5(C)CC[C@@]4(C)[C@]3(C)CC[C@@H]12 |  |
| 18.9 | CC1(C)C(=O)CC[C@]2(C)[C@H]3C(=O)C=C4[C@@H]5C[C@@](C)(CNC(=O)NCC6CCOCC6)CC[C@]5(C)CC[C@@]4(C)[C@]3(C)CC[C@@H]12 |  |
| 16.9 | CC1(C)[C@@H](O)CC[C@]2(C)[C@H]3C(=O)C=C4[C@H]5C[C@@](C)(CNC(=O)NCc6ccc(OC(F)(F)F)cc6)CC[C@]5(C)CC[C@@]4(C)[C@]3(C)CC[C@@H]12 |  |
| 15.9 | CC1(C)[C@@H](O)CC[C@]2(C)[C@H]3C(=O)C=C4[C@@H]5C[C@@](C)(CNC(=O)NCc6ccc(S(C)(=O)=O)cc6)CC[C@]5(C)CC[C@@]4(C)[C@]3(C)CC[C@@H]12 |  |
| 13 | CC1(C)[C@@H](O)CC[C@]2(C)[C@H]3C(=O)C=C4[C@H]5C[C@@](C)(CNC(=O)NCc6ccc(S(N)(=O)=O)cc6)CC[C@]5(C)CC[C@@]4(C)[C@]3(C)CC[C@@H]12 |  |
| 9.9 | CCC(=O)N1CCC(CNC(=O)NC[C@@]2(C)CC[C@]3(C)CC[C@]4(C)C(=CC(=O)[C@@H]5[C@@]6(C)CC[C@H](O)C(C)(C)[C@@H]6CC[C@]54C)[C@H]3C2)CC1 |  |
| 5.6 | CCC(=O)N1CCC(CNC(=O)NC[C@@]2(C)CC[C@]3(C)CC[C@]4(C)C(=CC(=O)[C@@H]5[C@@]6(C)CC[C@H](O)C(C)(C)[C@@H]6CC[C@]54C)[C@@H]3C2)CC1 |  |
